Measured values reported in patent US20230218639A1, “USE OF OXYGENATED CHOLESTEROL SULFATES FOR TREATING NEUROLOGICAL CONDITIONS, NEURODEGENERATIVE DISEASES, AND ADDICTION” (Durect Corporation, priority 2020, published 2023).
Read-outs that look alike come from different tables or passages of the source.

What was measured:
DNMT1 = DNMT1 (Homo sapiens, UniProt P26358); assay: DNMT1 activity assay (Poly(dI-dC) substrate, ^3H-SAM); format: biochemical; conditions: read-out: IC50, DNMT-1 activity
Procedure: (§2) For the DNMT1 activity assay, the substrate solution, 0.001 mg/ml Poly(dI-dC):Poly(dI-dC) in 50 mM Tris-HCl, pH 7.5, 50 mM NaCl, 5 mM EDTA, 5 mM DTT, 1 mM PMSF, 5% glycerol, 0.01% Brij35, 1% DMSO was used. For the DNMT3a/3b activity assay, 0.0075 mg/ml Lambda DNA in 50 mM Tris-HCl, pH 7.5, 50 mM NaCl, 5 mM EDTA, 5 mM DTT, 1 mM PMSF, 5% glycerol, 1% DMSO, was used. The indicated DNMT1, DNMT3a, or DNMT3b was added to the appropriate substrate solution and gently mixed. […] The mixtures were first incubated for 15 min, then ^3H-SAM was added to the reaction mixture to initiate the reaction, and the mixture was incubated for 60 min at 30° C. Following incubation, the reaction mixture was finally transferred to filter-paper for detection of radioactivity counts.

[1] = Metabolite profiling of plasma, urine, feces, intravenous dose; format: in vivo, Sprague Dawley rats; conditions: intravenous 10 mg/kg
Procedure: (§1) Nine male Sprague Dawley rats (Group 1) were designated for the pharmacokinetic phase, 3 male Sprague Dawley rats (Group 2) for the excretion mass balance phase, and 7 male Sprague Dawley rats (Group 3) and 9 male Long Evans rats (Group 4) for the tissue distribution phase. All animals received a single intravenous dose of [^14C]-25HC3S at 10 mg/kg and a target radioactivity of 225 μCi/kg. Blood samples were collected from all Group 1 animals at approximately 0.083, 0.25, 0.5, 1, 2, 4, 8, 12, 24, 48, and 72 hours post-dose. Urine and feces were collected from all Group 2 animals periodically through 168 hours post-dose. […] Following blood collection, animals were euthanized by CO2 inhalation and carcasses frozen in a dry ice/hexane bath for processing by quantitative whole body autoradiography. Whole blood, plasma, urine, feces, cage rinse, and cage wash were analyzed for total radioactivity by liquid scintillation counting.

DNMT3a = DNMT3a (Homo sapiens, UniProt Q9Y6K1); assay: DNMT3a activity assay (Lambda DNA substrate, ^3H-SAM); format: biochemical; conditions: read-out: IC50, DNMT3a activity
Procedure: as §2

DNMT3b = DNMT3b (Homo sapiens, UniProt Q9UBC3); assay: DNMT3b activity assay (Lambda DNA substrate, ^3H-SAM); format: biochemical; conditions: read-out: IC50, DNMT3b activity
Procedure: as §2

[2] = design: species or system rats; conditions: Sprague Dawley, rat, in vivo, po, 75 mg/kg
[3] = Plasma pharmacokinetics, single intravenous dose; format: in vivo, Sprague Dawley rats; conditions: single intravenous (bolus) dose 10 mg/kg
Procedure: as §1

[4] = design: species or system rats; conditions: rat, in vivo, po, 75 mg/kg
Procedure: The terminal elimination phase T1/2 was 27.3 hours.

[5] = Tissue distribution by quantitative whole body autoradiography, intravenous dose; format: in vivo, Sprague Dawley rats; conditions: intravenous 10 mg/kg
Procedure: as §1

[6] = test system: CpG sites in promoter regions of LINE-1 element, Huh-7 cells; assay: LINE-1 global methylation assay; format: cell-based, human; conditions: Huh-7 cells in HG media, 25HC3S for 4 hours
Procedure: Each sample, 2 μg, was sent to […], Inc. (Hopkinton, Mass.) for analysis of global methylation bisulfite sequencing. The same samples, 6 μg, were sent to Novogene Co., Ltd (Tianjin, China) for analysis of whole genome bisulfite sequencing (WGBS). Total RNA was isolated using the Promega SV total RNA isolation system (Madison, Wis.) with DNase treatment. […] Real-time RT-PCR was performed using SYBR Green as the indicator on ABI 7500 Fast Real-Time PCR System (Applied Biosystems, Foster City, Calif.). Amplifications of β-actin or GAPDH were used as internal controls. Relative messenger RNA (mRNA) expression was quantified with the comparative cycle threshold (Ct) method using the primer set shown in Table 1.1 and was expressed as 2^-ΔΔCt. […] PCR reaction and product purification were performed as per the manufacturer's protocol (GE Healthcare Life Sciences). The PCR products, 10 μl, were sequenced by Pyrosequencing on the PSQ96 HS System following the manufacturer's instructions (Pyrosequencing, Qiagen). The methylation status of each CpG site was determined individually as an artificial C/T SNP using QCpG software (Pyrosequencing, Qiagen). The methylation level at each CpG site was calculated as the percentage of the methylated alleles divided by the sum of all methylated and unmethylated alleles. The mean methylation level was calculated using methylation levels of all measured CpG sites within the targeted region of each gene. Each experiment included non-CpG cytosines as internal controls to detect incomplete bisulfite conversion of the input DNA. In addition, a series of unmethylated and methylated DNA were included as controls in each PCR assay. Furthermore, PCR bias testing was performed by mixing unmethylated control DNA with in vitro methylated DNA at different ratios (0%, 5%, 10%, 25%, 50%, 75%, and 100%), followed by bisulfite modification, PCR, and Pyro-sequencing analysis.

[7] = rat, in vivo, po, 75 mg/kg
Procedure: Plasma concentrations were similar to those determined in the pharmacokinetics phase and were above the lower limit of quantitation.
Pancreas and liver concentrations ranged from 23,500 ng equiv./g to 28,100 ng equiv./g. Uveal tract and brain concentrations were lowest relative to the other tissues and were approximately 1000 ng equiv./g. Skin, thymus, prostate, and pituitary tissue concentrations were <3000 ng equiv./g. Remaining tissues had concentrations between 3600 ng-equiv./g and 10,700 ng equiv./g. […] As calculated using AUClast, the tissue:plasma ratios were highest for the small intestine (wall, 15.4) followed by the liver and adrenal gland at 6.96 and 6.64, respectively. High liver and small intestine concentrations are consistent with oral administration and biliary (fecal) excretion.

DNMT3a, sequence (Q9Y6K1 whole entry, looked up): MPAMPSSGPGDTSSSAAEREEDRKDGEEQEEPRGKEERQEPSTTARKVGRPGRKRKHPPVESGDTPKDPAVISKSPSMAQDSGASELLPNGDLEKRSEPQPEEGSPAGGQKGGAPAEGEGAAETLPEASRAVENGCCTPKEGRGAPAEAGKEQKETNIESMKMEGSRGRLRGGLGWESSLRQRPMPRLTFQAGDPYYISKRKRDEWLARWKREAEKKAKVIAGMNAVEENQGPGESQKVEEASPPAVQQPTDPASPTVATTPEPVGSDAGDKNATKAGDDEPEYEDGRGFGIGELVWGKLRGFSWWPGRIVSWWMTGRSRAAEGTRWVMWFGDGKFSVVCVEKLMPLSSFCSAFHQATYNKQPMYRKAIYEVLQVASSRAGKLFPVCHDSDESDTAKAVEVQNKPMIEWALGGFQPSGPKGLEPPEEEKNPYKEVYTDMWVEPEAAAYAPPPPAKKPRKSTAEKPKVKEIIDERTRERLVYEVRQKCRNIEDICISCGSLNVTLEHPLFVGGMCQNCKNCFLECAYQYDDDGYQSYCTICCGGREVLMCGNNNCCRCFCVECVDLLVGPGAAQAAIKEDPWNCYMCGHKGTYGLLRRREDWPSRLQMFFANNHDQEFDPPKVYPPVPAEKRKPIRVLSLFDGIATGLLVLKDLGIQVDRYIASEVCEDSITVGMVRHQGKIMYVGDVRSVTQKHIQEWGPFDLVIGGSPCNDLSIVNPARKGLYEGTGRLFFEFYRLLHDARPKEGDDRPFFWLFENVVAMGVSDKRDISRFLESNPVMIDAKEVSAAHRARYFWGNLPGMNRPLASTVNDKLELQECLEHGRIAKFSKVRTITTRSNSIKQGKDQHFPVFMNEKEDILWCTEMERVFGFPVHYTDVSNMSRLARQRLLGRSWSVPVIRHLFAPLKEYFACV
DNMT1, sequence (P26358 whole entry): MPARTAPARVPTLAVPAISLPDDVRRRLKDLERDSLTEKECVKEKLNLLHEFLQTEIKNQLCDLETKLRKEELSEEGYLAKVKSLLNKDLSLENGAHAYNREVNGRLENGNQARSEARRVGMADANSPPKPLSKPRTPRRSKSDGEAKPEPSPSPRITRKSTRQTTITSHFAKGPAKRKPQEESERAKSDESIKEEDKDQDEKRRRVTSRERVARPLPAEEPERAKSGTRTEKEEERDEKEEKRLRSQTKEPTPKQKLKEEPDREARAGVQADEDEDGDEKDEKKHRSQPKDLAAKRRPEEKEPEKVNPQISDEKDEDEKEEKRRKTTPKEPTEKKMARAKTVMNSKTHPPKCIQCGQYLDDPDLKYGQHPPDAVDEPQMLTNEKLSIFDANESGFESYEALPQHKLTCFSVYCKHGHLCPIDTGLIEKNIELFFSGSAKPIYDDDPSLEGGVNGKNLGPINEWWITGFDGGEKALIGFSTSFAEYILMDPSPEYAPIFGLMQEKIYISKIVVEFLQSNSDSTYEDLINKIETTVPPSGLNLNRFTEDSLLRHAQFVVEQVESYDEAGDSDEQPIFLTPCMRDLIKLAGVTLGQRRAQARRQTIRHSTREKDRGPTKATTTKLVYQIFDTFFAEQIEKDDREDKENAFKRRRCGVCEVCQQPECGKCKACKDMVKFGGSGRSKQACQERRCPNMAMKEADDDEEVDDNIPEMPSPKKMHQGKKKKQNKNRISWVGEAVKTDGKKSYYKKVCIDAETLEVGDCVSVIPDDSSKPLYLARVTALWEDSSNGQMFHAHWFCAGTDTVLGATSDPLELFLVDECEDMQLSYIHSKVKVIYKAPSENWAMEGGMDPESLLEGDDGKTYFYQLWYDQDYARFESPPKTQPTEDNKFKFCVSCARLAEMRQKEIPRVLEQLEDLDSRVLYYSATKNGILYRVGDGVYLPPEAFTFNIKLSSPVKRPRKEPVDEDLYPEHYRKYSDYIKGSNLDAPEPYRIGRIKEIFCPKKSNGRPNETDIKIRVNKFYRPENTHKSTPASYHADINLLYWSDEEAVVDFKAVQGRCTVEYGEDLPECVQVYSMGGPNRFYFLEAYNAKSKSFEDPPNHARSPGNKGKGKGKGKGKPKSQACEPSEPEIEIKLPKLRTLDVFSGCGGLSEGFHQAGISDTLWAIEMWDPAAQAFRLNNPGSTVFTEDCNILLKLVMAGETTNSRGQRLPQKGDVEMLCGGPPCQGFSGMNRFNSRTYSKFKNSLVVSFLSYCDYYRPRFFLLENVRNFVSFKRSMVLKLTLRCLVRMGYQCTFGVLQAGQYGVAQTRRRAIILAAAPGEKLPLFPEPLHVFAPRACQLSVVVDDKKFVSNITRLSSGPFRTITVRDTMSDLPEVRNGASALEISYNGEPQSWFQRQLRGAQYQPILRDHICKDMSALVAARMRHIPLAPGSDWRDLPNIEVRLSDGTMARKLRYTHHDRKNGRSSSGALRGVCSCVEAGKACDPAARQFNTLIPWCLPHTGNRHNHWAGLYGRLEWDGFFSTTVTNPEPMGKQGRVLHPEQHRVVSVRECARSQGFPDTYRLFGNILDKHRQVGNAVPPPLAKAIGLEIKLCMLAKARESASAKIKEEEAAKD

C[C@H](CCCC(C)(C)O)[C@H]1CC[C@H]2[C@@H]3CC=C4C[C@@H](OS(=O)(=O)O)CC[C@]4(C)[C@H]3CC[C@]12C [25HC3S, 5-Cholesten-3β, 25-diol 3-sulfate]
IC50 (DNMT1): 4.04 µM | % of dose in feces ([1]; 0 to 48 hours post-dose): 2 % of dose | share of exposure (AUC) to 25HC3S related radioactivity in plasma ([1]; up to 1 hour post-dose): approximately 54% | IC50 (DNMT3a): 3.03 µM | IC50 (DNMT3b): 9.05 µM | dose recovered in urine, feces, and cage rinse [2]: approximately 94.5% | recovered radioactivity in feces [2]: 94.2% | plasma AUClast [3]: 27,900 h*ng-equiv./g | terminal elimination phase T1/2, plasma ([3]; PK phase): 26.6 h | terminal elimination phase T1/2 ([4]; Sprague Dawley): 27.3 h | plasma AUClast [4]: 96,400 h·ng equiv./g | plasma Cmax [4]: 3800 ng equiv./g | AUClast in liver [5]: ≤ 364,000 h ng/g | tissues in which radioactivity was detected [5]: all tissues except the eye (lens) | whole blood AUClast [5]: 25,200 h*ng-equiv./g | T1/2 in plasma ([5]; QWBA phase): 44.3 h | T1/2 in whole blood ([5]; QWBA phase): 52.2 h | Reduction of methylation (demethylation) at Pos1 of LINE-1 [6]: −5% | Reduction of methylation (demethylation) at Pos3 of LINE-1 [6]: −10% | Reduction of methylation (demethylation) at Pos 4 of LINE-1 [6]: −5.6% | Cmax in small intestine (wall) [7]: 424,000 ng equiv./g | Cmax in stomach (wall) [7]: 204,000 ng equiv./g | tissue Tmax [7]: ≤ 6 hours post-dose | tissues in which radioactivity was detected [7]: all tissues except the eye (lens) | whole blood AUClast [7]: 127,000 h ng equiv./g | whole blood Cmax [7]: 2850 ng equiv/g
